Assay results as given in publication PMC8291587, “Guanidine Derivatives: How Simple Structural Modification of Histamine H3R Antagonists Has Led to the Discovery of Potent Muscarinic M2R/M4R Antagonists” (ACS Chemical Neuroscience, 2021).

Assays:
hH3R = biological target: T1, hH3R (Homo sapiens, UniProt Q9Y5N1); experiment: hH3R radioligand displacement binding assay ([3H]-Nα-methylhistamine, HEK-293 cell membranes); conditions: [3H]-Nα-methylhistamine; HEK-293 membranes; read-out: hH3R -log(Ki) ± sem (converted)
T1 construct: expressed in transfected cells; membrane fractions
T1 sequence (Q9Y5N1 whole entry): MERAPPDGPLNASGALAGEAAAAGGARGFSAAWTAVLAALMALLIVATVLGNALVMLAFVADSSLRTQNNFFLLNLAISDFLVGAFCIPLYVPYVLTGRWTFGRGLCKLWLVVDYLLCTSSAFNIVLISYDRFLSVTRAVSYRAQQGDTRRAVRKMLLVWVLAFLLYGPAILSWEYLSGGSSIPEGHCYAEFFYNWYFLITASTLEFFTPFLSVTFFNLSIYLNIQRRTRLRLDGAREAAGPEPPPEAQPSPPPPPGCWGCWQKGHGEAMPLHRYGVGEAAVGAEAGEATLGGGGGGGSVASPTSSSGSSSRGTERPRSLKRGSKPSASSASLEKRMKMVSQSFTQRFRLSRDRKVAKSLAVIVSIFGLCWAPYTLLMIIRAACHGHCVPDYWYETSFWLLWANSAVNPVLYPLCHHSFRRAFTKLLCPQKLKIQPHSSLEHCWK
Experimental: [^3H]-N^α-Methylhistamine was used as a radiolabeled ligand.
The radioligand displacement binding assay was performed in membrane fractions of HEK-293 cells stably expressing hH3R. Cell cultivation and membrane preparation were performed according to Kottke et al.[43] […] The total assay volume was set to 200 μL. The compounds were tested in several appropriate concentrations between 100 μM and 0.1 nM. Pipetting was partly done by Freedom Evo (Tecan). […] The membrane fraction (20 μg/well), test compounds, and radiolabeled ligand were incubated for 90 min at 25 °C while shaking. The bound radioligand was separated from free radioligand by filtration through GF/B filters pretreated with 0.3% (m/v) polyethylenimine using a cell harvester. Radioactivity was determined by liquid scintillation counting using a MicroBeta Trilux (PerkinElmer). The data were obtained in duplicates in at least three independent experiments. Nonspecific binding was subtracted from the raw data to calculate specific-binding values. The evaluation was performed with GraphPad Prism 6.1 (San Diego, CA, USA) using nonlinear regression (one-site competition with a logarithmic scale). The Ki values were calculated from the IC50 values using the Cheng–Prusoff equation.[44] The statistical calculations were performed on −log Ki. The mean values and 95% confidence intervals were transformed to nanomolar concentrations.

muscarinic M2R = biological target: T2, muscarinic M2R (Homo sapiens, UniProt P08172); experiment: Intracellular Ca2+ measurement, functional response to ACh, M2R in CHO cells; format: cell-based
T2 construct: host or cells: CHO cells (whole cells, Fura-2)
T2 sequence (P08172 1-466): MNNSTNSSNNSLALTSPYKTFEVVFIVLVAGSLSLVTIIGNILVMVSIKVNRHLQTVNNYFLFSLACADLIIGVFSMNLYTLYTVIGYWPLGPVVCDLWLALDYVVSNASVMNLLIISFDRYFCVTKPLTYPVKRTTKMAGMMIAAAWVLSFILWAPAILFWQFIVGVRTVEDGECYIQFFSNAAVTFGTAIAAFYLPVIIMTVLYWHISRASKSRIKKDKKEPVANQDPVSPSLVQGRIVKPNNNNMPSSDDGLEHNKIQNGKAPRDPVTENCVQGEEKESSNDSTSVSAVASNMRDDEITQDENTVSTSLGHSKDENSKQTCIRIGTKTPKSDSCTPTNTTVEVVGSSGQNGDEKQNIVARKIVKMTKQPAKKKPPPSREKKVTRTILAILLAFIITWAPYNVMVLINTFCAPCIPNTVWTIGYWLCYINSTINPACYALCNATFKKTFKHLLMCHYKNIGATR
Experimental: (§1) Linear Schild plot indicates the competitive interaction (slope = 1) of the tested compound (Supporting Information, Figure S55).
(§2) Intracellular Ca^2+ level was taken as a functional response to ACh. Black 96-well plates were seeded with 12,000 CHO cells per well. After two days of cultivation in DMEM at 37 °C under a humidified atmosphere containing 5% CO2, cells were washed with Krebs-HEPES buffer (KHB) (composition: (mM) NaCl (138), KCl (4), CaCl2 (1.3), MgCl2 (1), NaH2PO4 (1.2), HEPES (20), glucose (10), pH adjusted to 7.4) KHB was loaded with 5 μM Fura-2 (Sigma-Aldrich) for 1 h. The cells were washed with fresh KHB and preincubated with tested compounds for 1 h. Then plates were placed in a Cytation 3 reader. The first basal level (fluorescence dual excitation at 340 and 380 nm, emission at 510 nm) was measured. Following this, ACh was added to the desired concentration (ranging from 10 pM to 100 μM) by instrument injectors, and fluorescence was measured immediately. Intracellular Ca^2+ level was calculated as a ratio of 340 to 380 nm excitation fluorescence. […]
(§3) The intracellular level of calcium at various concentrations of ACh was measured. […] From a series of EC50 values of apparent inhibition constant KB was calculated by fitting eq 5 to dose ratio (DR) induced by tested compound at a given concentration: [drawing 5] […]

M3R = biological target: T3, M3R (Homo sapiens, UniProt P20309); experiment: Intracellular Ca2+ measurement, functional response to ACh, M3R in CHO cells; format: cell-based; conditions: antagonism of ACh-induced Ca2+ response, read-out: pKB M3R (converted)
T3 construct: host or cells: CHO cells (whole cells, Fura-2)
T3 sequence (P20309 whole entry): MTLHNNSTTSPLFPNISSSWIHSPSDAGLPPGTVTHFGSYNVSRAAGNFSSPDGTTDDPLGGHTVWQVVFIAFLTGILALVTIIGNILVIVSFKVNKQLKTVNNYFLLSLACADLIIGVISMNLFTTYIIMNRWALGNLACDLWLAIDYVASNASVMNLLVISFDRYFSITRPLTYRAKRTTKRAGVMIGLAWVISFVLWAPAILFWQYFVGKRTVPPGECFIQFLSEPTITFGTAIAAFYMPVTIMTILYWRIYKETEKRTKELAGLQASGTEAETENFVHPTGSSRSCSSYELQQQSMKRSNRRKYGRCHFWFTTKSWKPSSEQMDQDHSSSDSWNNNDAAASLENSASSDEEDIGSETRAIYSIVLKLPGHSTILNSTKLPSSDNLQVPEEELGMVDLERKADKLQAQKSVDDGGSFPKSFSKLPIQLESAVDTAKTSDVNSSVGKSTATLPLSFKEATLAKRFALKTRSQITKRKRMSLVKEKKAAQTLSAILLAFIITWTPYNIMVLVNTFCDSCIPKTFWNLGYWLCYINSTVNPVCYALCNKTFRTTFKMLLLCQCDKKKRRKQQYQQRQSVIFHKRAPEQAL
Experimental: as §1, §2, §3

H3R = H3R agonism check with thioperamide on electrically stimulated guinea pig ileum; conditions: thioperamide as H3R antagonist
Experimental: A standard ex vivo assay based on the relaxant response of histamine H3R agonists to electrically driven guinea pig ileum was used to test the influence of ADS compounds on the reduction of electrically evoked tissue contraction. […] The −log EC50 value for RAMH and ADS compounds were evaluated. […] Following this, we decided to evaluate the ADS series as potential M2R/M3R ligands on the isolated guinea pig ileum.
Male guinea pigs, weighing 300–400 g, were euthanized by a blow to the neck. A 20–30 cm length of the distal ileum, apart from the terminal 5 cm, was rapidly removed and placed in phosphate buffer at room temperature (pH 7.4) containing (mM) NaCl (136.9), KCl (2.6), KH2PO4 (1.47), Na2HPO4 (9.58), and indomethacin (1 × 10^–6 mol/L)). The intraluminal content was rinsed, and the isolated intestine was cut into 1.5–2 cm segments. The preparations were mounted between two platinum electrodes isotonically in a 20 mL organ bath filled with Krebs buffer: composition (mM) NaCl (118), KCl (5.6), MgSO4 (1.18), CaCl2 (2.5), NaH2PO4·H2O (1.28), NaHCO3 (25), glucose (5.55), and indomethacin (3 × 10^–7 mol/L). […] Cumulative concentration–response curve was determined to RAMH or tested agonist (10 nM to 10 mM) at increasing concentrations spaced by 3- or 3.3-fold. The agonist potency is expressed as pD2 value (−log EC50) ± sem.

| SMILES | Ki (hH3R) | Kb (muscarinic M2R; antagonism of ACh-induced Ca2+ response, CHO cells, read-out: pKB M2R (converted)) | Schild plot slope (muscarinic M2R; linear Schild plot, competitive interaction, M2R and M3R Ca2+ assays) | Kb (M3R) | shift of the concentration–response curve with or without thioperamide (H3R agonism) (H3R) |
| --- | --- | --- | --- | --- | --- |
| N=C(N)N(CCCCN1CCN(C[C@H]2CC[C@@H](COc3ccccc3)CC2)CC1)Cc1ccccc1 [ADS10227, 1-{4-{4-{[4-(phenoxymethyl)cyclohexyl]methyl}piperazin-1-yl}but-1-yl}-1-(benzyl)guanidine] | 5890 nM | 6.76 nM | 1 | 37.2 nM | no shifts |
| [H]/N=C(/N)N(CCCCN1CCN(CC2CCC(COc3ccccc3)CC2)CC1)Cc1ccc(C(F)(F)F)cc1 (stereo not drawn) [ADS10239] | 2340 nM |  |  |  |  |
